Entries after “also recorded” stand apart in the source; their conditions may differ.
Tests used:
phospho-STAT3 (Tyr705) = assay: Phospho-STAT3 (Tyr705) sandwich ELISA; format: cell-based; details: PLC5 cells
Description: A PathScan Phospho-Stat3 (Tyr705) Sandwich ELISA Kit was used for the detection of phospho-STAT3 (Cell Signaling, Danvers, Mass.). Cells were pre-treated with IL-6 1 ng/ml and then exposed with various compounds at 10 μM for 24 h. After incubation with cell lysates, both non-phospho- and phospho-Stat3 proteins are captured by the coated antibody. The expression of phospho-STAT3 was measured at 450 nm absorbance.
The decreased level of P-STAT3 induced by these derivatives was correlated with cell toxicity. In the other words, these derivatives induced cell death in part through inhibition of STAT3.
We also assayed the activation status of p-STAT3 by STAT3 ELISA. […] SC-1 or sorafenib-treated cell extracts were incubated with antibody against phosphorylated STAT3 at Y705. […] To evaluate the transcriptional activity, STAT3-binding region was cloned into Luc reporter. […] The firefly luciferase activity was evaluated and normalized by Renilla luciferase.
p-STAT3 activity: PLC5 cells treated with SC derivatives were collected in RIPA buffer and analyzed in p-STAT3 ELISA kit. The assay protocol follows the manufacturer.

[1] = test system: p-STAT3, cyclin D1, survivin, Mc1-1; assay: Western blot of STAT3-related proteins in HCC cells; format: cell-based; details: HCC cells, 24 h
Description: Cells were treated with various compounds at 5 and 10 μM for 24 h. Cell lysates were analyzed by western blot.
HCC cells treated with SC-43 (10 μM for 24 h) were collected with RIPA lysis buffer. Antibodies for immunoblotting such as cyclin D1 was purchased from Santa Cruz Biotechnology. Other antibodies such as survivin, phospho-STAT3 (Tyr705), STAT3, Mc1-1, SOCS1, and SOCS3 were from Cell Signaling.

SHP-1 [2] = biological target: T1, SHP-1 (Homo sapiens, UniProt P29350); assay: Phosphatase activity of recombinant SHP-1; format: biochemical; details: 25 ng protein, 30 minutes
Description: RediPlate 96 EnzChek Tyrosine Phosphatase Assay kit (R-22067) was used for SHP-1 activity assay (Molecular Probes). Recombinant SHP-1 protein (25 ng) was incubated with either SC-43 or SC-40 at the indicated dose for 30 minutes and then analyzed by SHP-1 phosphatase activity.

HCC cells [3] = assay: cells
Source text: Points, mean; bars, SD (n=6).
Points, mean; bars, SD ([…]). […] The N-SH2 domain is in orange, the C-SH2 domain is in marine, the PTP domain is in hot pink, and the linkers between them are in gray. […] ELISA, enzyme-linked immunosorbent assay.

HCC cells [4] = assay: Apoptosis analysis by flow cytometry (sub-G1); format: cell-based; details: for apoptosis (sub-G1): HCC cells, 24 h
Outline: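 HCC cells treated with compounds, harvested, fixed in 75% ethanol and stained with 20 ug/ml propidium iodide, 30 min at 37° C in the dark. Sub-G1 population measured by flow cytometry as apoptotic fraction; mean ± SD.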

PLC5 tumors = assay: Subcutaneous PLC5 xenograft; format: in vivo, mice; details: 10 mg/kg/day orally
Description: All experimental procedures using these mice were done in accordance with protocols approved by the Institutional Laboratory Animal Care and Use Committee of National Taiwan University. Each mouse was inoculated s.c. in the dorsal flank with 1×10^6 PLC5 cells suspended in 0.1 mL of serum-free medium containing 50% Matrigel (BD Biosciences). When tumors reached 100 to 200 mm3, mice received SC-40 tosylate (10 or 20 mg/kg) orally once daily. Tumors were measured weekly using calipers, and their volumes were calculated using the following standard formula: width×length×height×0.52.
(§1) We established an HCC orthotopic model using luc2-expressed PLC5 cells inoculated into liver of nude mice. […] To further correlate the molecular mechanism with the anticancer effect in vivo, p-STAT3 and SHP-1 activity in tumor extract from vehicle- and SC-treated mice was analyzed by immunoblotting. […] The pharmacokinetics of SC-43 was determined (FIG. 25E).

[5] = test system: PLC5/luc2 orthotopic tumors; assay: HCC orthotopic model with PLC5/luc2 cells; format: in vivo, mice; details: 10 mg/kg/day orally
Description: All experimental procedures using these mice were done in accordance with protocols approved by the Institutional Laboratory Animal Care and Use Committee of National Taiwan University. Each mouse was inoculated within liver […] with 1×10^4 PLC5/luc cells suspended in 0.1 mL of serum-free medium containing 50% Matrigel (BD Biosciences). […] Tumor growth was monitored by non-invasive in vivo imaging system (IVIS) image system twice weekly.
as §1

[6] = Pharmacokinetics of SC-43; format: in vivo; details: compared with literature report for sorafenib
Description: as §1

[7] = test system: MDAMB231, MDAMB468, MCF-7, HL-60, KG-1 and ML-1; assay: Anti-proliferation in breast cancer and leukemia cell lines; format: cell-based; details: MDAMB231, MDAMB468, MCF-7, HL-60, KG-1, ML-1
Description: The Huh-7 HCC cell line was obtained from the Health Science Research Resources Bank (Osaka, Japan; JCRB0403). The PLC/PRF/5 (PLC5), Sk-Hep-1, and Hep3B cell lines were obtained from American Type Culture Collection (Manassas, Va.). The cells were maintained in DMEM supplemented with 10% FBS, 100 units/mL penicillin G, 100 μg/mL streptomycin sulfate and 25 μg/mL amphotericin B in a 37° C. humidified incubator in an atmosphere of 5% CO2 in air. Other cell lines, including breast cancer cells e.g. MDAMB231, MDAMB468, MCF-7, and leukemia cancer cells e.g. HL-60, KG-1 and ML-1 are also provided for the assays described below.
We also examed the effects of SC-1 and SC-43 in other cancer cell lines, including breast cancer cell lines e.g. MDAMB231, MDAMB468, MCF-7, and leukemia cancer cell lines e.g. HL-60, KG-1 and ML-1.

HCC-bearing mice = assay: Antitumor effect of SC-43 in HCC-bearing mice; details: mouse, in vivo
Description: SHP-1/STAT3-related signaling pathway acts as a vital target for the anti-tumor effect of SC-43. See FIG. 22 (A) the cytotoxicity of SC-43 in HCC cells, (B) the antitumor effect of SC-43 in HCC-bearing mice, (C) the activity of SHP-1 induced by SC-43, and (D) Western blot analysis of p-STAT3 and STAT3 in HCC cells treated by SC-43 (10 μM and 20 μM).

SHP-1 [8] = biological target: T1, SHP-1; assay: Phosphatase activity of SHP-1 immunoprecipitated from PLC5 cells, incubated with compound in vitro; format: biochemical; parameters: PLC5 protein extract was incubated with anti-SHP-1 antibody in immunoprecipitation buffer overnight; endogenous in cells; host or cells: PLC5 (PLC/PRF/5); details: SHP-1-containing PLC5 extract, 10 or 100 nmol/L, 30 min, 4° C.
Description: PLC5 protein extract was incubated with anti-SHP-1 antibody in immunoprecipitation buffer overnight. Protein G Sepharose 4 Fast flow (GE Healthcare Bio-Science) was added to each sample, followed by incubation for 3 hours at 4° C. with rotation. […] RediPlate 96 EnzChek Tyrosine Phosphatase Assay kit (R-22067) was used for SHP-1 activity assay (Molecular Probes).

Huh-7 tumors = test system: Huh-7 tumors
Description: Male NCr athymic nude mice (5-7 weeks of age) were obtained from the National Laboratory Animal Center (Taipei, Taiwan). All experimental procedures using these mice were performed in accordance with protocols approved by National Taiwan University. […] Controls received vehicle (Chen K F et al. Cancer Res. 2008; 68:6698-6707).

VEGFR1 = biological target: T2, VEGFR1 (Homo sapiens, UniProt P17948); assay: VEGFR1 activity in HUVEC cells; format: cell-based; details: 24 h
T2 construct: we tested the effect of SC-49 on the activity of VEGFR1 in HUVEC cells; endogenous in cells; host or cells: HUVEC
Source text: (§2) To further investigate the effect of SC-49 on angiogenesis, we tested the effect of SC-49 on the activity of VEGFR1 in HUVEC cells.

p-STAT1 and p-STAT5 = assay: Effect on p-STAT1 and p-STAT5; format: cell-based; details: indicated doses, 24 h
Source text: as §2

T1 sequence (P29350 whole entry): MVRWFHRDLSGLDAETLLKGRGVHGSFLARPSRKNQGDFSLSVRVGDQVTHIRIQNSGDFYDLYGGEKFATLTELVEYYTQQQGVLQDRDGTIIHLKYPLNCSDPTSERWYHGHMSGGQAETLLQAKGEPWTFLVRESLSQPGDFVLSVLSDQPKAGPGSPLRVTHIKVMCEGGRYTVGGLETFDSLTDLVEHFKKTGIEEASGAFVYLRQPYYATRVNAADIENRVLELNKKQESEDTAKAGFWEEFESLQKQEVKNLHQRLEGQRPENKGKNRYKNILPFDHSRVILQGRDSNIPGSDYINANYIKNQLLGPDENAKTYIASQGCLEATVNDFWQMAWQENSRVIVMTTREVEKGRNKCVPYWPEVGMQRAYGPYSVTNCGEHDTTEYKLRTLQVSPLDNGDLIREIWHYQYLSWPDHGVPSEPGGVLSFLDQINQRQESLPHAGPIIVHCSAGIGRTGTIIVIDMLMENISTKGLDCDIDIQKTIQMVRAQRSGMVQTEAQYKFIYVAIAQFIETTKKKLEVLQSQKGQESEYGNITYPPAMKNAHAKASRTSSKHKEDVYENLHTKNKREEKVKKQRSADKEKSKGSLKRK
T2 sequence (P17948 27-1338): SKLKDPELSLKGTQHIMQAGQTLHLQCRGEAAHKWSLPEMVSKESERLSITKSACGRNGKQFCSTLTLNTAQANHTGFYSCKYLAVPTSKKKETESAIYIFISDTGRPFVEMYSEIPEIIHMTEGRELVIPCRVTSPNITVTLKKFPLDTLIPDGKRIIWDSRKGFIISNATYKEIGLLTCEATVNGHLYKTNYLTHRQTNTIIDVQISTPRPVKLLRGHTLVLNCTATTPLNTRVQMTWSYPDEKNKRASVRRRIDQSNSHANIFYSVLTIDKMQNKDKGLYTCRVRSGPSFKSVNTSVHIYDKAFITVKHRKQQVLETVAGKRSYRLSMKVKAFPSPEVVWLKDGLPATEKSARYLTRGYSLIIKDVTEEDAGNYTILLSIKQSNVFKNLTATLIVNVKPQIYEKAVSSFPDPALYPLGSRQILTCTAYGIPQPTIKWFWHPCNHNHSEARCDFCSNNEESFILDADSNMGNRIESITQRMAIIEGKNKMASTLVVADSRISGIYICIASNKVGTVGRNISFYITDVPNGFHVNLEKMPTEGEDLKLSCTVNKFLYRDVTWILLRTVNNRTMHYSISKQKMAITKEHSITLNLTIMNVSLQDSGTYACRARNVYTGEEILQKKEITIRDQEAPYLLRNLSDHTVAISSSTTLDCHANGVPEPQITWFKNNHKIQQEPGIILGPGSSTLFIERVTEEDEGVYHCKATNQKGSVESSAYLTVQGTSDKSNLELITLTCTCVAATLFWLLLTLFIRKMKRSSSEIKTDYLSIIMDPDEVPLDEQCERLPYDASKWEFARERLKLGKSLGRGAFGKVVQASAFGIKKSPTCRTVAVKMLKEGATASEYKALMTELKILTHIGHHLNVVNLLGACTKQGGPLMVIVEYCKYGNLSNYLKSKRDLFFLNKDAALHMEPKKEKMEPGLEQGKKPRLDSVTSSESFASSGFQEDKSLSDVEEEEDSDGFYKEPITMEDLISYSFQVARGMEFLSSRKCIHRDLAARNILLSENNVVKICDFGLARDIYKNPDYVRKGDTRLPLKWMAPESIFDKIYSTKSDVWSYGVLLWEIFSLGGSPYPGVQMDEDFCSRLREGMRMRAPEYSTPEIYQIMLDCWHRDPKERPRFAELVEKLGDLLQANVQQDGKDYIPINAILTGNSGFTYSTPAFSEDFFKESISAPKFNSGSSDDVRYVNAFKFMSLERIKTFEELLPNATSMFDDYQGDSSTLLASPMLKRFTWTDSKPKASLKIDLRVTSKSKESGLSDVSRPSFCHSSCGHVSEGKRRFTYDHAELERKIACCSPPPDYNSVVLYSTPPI

Compound | p-STAT3 / STAT3 activity (phospho-STAT3 ELISA and luciferase reporter) (phospho-STAT3 (Tyr705)) | p-STAT3 and STAT3-related proteins (Western blot) [1] | phosphatase activity of recombinant SHP-1 (SHP-1 [2]) | viability of HCC cells / cytotoxicity (HCC cells [3]; 72 h) | IC50 (HCC cells [3]; read-out: IC50, cytotoxicity in HCC cells) | apoptosis (sub-G1) (HCC cells [4]) | apoptosis in sorafenib-resistant cells (HCC cells [4]; sorafenib-resistant HCC cells (SR1)) | p-STAT3 and SHP-1 activity in PLC5 tumor lysate (PLC5 tumors) | average tumor size versus control mice at the end of treatment (PLC5 tumors; SC PLC5 tumor-bearing mice) | anti-HCC effect and survival in orthotopic model [5] | stability in vivo (pharmacokinetics) [6] | growth of breast cancer and leukemia cell lines [7] | tumor growth inhibition in HCC-bearing mice (HCC-bearing mice) | phosphatase activity of SHP-1 in vitro (SHP-1 [8]) | Huh-7 tumor size / growth versus control (Huh-7 tumors; 10 mg/kg/day orally) | body weight or toxicity (Huh-7 tumors; mouse, in vivo, po, 10 mg/kg/day) | SHP-1 activity in Huh-7 tumors (Huh-7 tumors; tumor extract) | p-STAT3 in Huh-7 tumors (Huh-7 tumors; tumor extract, Western blot) | activity of VEGFR1 (VEGFR1) | p-STAT1 and p-STAT5 (p-STAT1 and p-STAT5)
N#Cc1ccc(Oc2cccc(NC(=O)Nc3ccc(Cl)c(C(F)(F)F)c3)c2)cc1 [SC-43, 1-(3-(4-cyanophenoxyl)phenyl)-3-(4-chloro-3-(trifluoromethyl)phenyl)urea] | induce strong inhibition of p-STAT3 activity; also recorded: showed more potent inhibition of the p-STAT3-related signaling pathway | down-regulates phospho-STAT3-related signaling pathway in HCC; also recorded: shows better inhibition of p-STAT3-related signaling pathway than sorafenib; also recorded: revealed submicromolar inactivation of p-STAT3, relative to sorafenib | increase phosphatase activity of SHP-1 in vitro | showed lower 50% inhibitory concentration, compared to sorafenib | ~500 nM | show significant anti-cancer effects in HCC cells | resulted in significant apoptosis in sorafenib-resistant cells at submicromolar concentrations | Down-regulation of p-STAT3 and elevation of SHP-1 activity | less than half that of control mice | had an evident anti-HCC effect and significant survival benefit | exhibited a longer period of stability in vivo than that reported for sorafenib | effective in inhibiting the growth of cancer cells | significantly causes tumor growth inhibition in HCC-bearing mice | increase phosphatase activity of SHP-1 in vitro |  |  |  |  |  | 
N#Cc1ccc(Oc2ccc(CNC(=O)Nc3ccc(Cl)c(C(F)(F)F)c3)cc2)cc1 [SC-49, 1-(4-chloro-3-(trifluoromethyl)phenyl)-3-(4-(4-cyanophenoxyl)benzyl)urea] |  |  |  |  |  | induced more apoptotic cell death than sorafenib |  |  |  |  |  |  |  | increase phosphatase activity of SHP-1 in vitro | significantly reduced the growth of the Huh-7 tumour | stable body weights | enhanced the activity of SHP-1 in Huh-7 tumours | down-regulated p-STAT3 in Huh-7 tumours | did not affect the activity of VEGFR1 in HUVEC cells | down-regulated both p-STAT1 and p-STAT5 in a dose dependent manner
